Results on nine compounds are retold here after paper PMC10537604, “Development and Assessment of 1,5–Diarylpyrazole/Oxime Hybrids Targeting EGFR and JNK–2 as Antiproliferative Agents: A Comprehensive Study through Synthesis, Molecular Docking, and Evaluation” (Molecules, 2023).

The term inhibition denotes the change of the read-out against control, counted positive when it falls. The term IC50 denotes the point on the concentration scale where inhibition reaches its midpoint.

Molecules are shown by their SMILES. Read-outs that look alike come from different tables or passages of the source.

For assay [1], the system named is human hepatocellular carcinoma cell line HepG2. Kind of assay: WST-8 antiproliferative assay, HepG2. It counts as cell-based. How it is done:
Compounds 7a–j, 8a–j, 9a–c, and 10a–c were evaluated for in vitro anticancer activities against five different cancer cell lines, namely, human colorectal adenocarcinoma cell lines DLD-1, human cervical cancer cell line Hela, human pancreatic cancer cell line SUIT-2, human myelogenous leukemia cell line K562, and human hepatocellular carcinoma cell line HepG2 using WST-8 assay at concentrations of 100 µM to investigate the growth inhibition percent (GI%) of each compound using daunorubicin as a reference drug. […]. […] So, as a conclusion on the SAR study of those compounds as antiproliferative agents, the oxime moiety potentiated the anticancer activity and electron donating groups on R1 and R2 played an important role on this activity. Moreover, the sulfamoyl moiety on R3 seems to play a potential role in the activity of the prepared compounds (Table 1).
All selected compounds and daunorubicin were recorded as the minimum concentration required to inhibit half cell growth (IC50) and the results are listed in Table 2.
Evaluation of anticancer activity was performed according to the standard water-soluble tetrazolium-8 (WST-8) assay at the Faculty of Engineering, Yamagata University, Yonezawa, Japan, using an MTP-310 absorbance microplate reader. The EGFR inhibitory assay was carried out at the Faculty of Engineering, Yamagata University, Yonezawa, Japan, according to the protocol enzyme linked immunosorbent assay (ELISA) kits (Douset sandwich ELISA test, recombinant mouse EGFR). The JNK-2 inhibitory assay was performed at the Faculty of Engineering, Yamagata University, Yonezawa, Japan, according to the protocol of enzyme-linked immunosorbent assay (ELISA), the assay was carried out using the JNK-2 kit (Simple Step ELISA, pT183/Y185, Abcam Company, Cambridge, CB2 0AX, UK). Apoptosis and cell cycle analysis was performed at Faculty of medicine, Yamagata University, Yamagata, Japan, using BD FACS melody. Molecular docking was performed at the Nano Medical Engineering Laboratory, RIKEN Cluster for Pioneering Researchers, RIEKN, Japan, using ICM-Pro 3.8 software (MolSoft L.L.C., San Diego, CA, USA).
According to the standard water-soluble tetrazolium-8 (WST-8) assay, the current synthesized compounds have been tested for their anticancer activities against different five cancer cell lines; DLD-1, Hela, K562, SUIT-2, and HepG2 and daunorubicin was used as reference drug by the WST-8 assay. The five cells were maintained in a suspension culture, (Dulbecco’s modified eagle medium (DMEM) for SUIT-2, Hela, and HepG2 or PRIM for K562 and DLD), supplemented with 5% FBS (Fetal Bovine Serum) containing 1% of a penicillin-streptomycin (1:1) mixture. A 100 μL aliquot of cells (10,000 cells/mL) was added to a 96 well plate and incubated for 24 h at 37 °C in a humidified incubator containing 5% CO2 in the air. After 24 h, a 10 μL aliquot of test compound (concentrations varying in the range of 10–150 µM) was added to each of the 96 wells and incubated for 24 h. Then A 10 μL WST-8 solution (mixture of WST-8 and 1-methoxy PMS) was added to each well and the incubation continued for 3 h. The visible absorbance at 450 nm and 630 nm as the reference wavelength of each well was quantified using an MTP-310 absorbance microplate reader. Daunorubicin was used as a positive control. The results of cytotoxicity were recorded as growth inhibition percentages and as IC50 values.
(Tetrazolium assays rely on reduction of a dye to a coloured formazan, in cell work by metabolically active cells.)

Assay [2] can be described thus: Nitric oxide release, Griess colorimetric method. The format is physicochemical. The note with it: phosphate buffer pH 7.4, N-acetylcysteine. How it is done:
For the indirect determination of NO, the Griess colorimetric approach was utilized, which includes spectrophotometry measurements of the stable decomposition products NO2^− and NO3^−. This method requires that NO3^− is first reduced to NO2^− and then NO2^− is determined by the Griess reaction that includes two steps, the first step is a diazotization reaction in which the NO-derived nitrogen agent, dinitrogen trioxide (N2O3), which is produced by the spontaneous oxidation of NO with sulfanilamide to form the diazonium ion, is used. […] In order to evaluate thiol-induced NO generation from the appropriate compounds, including NO-donating oximes 8a–b, 8d–i, and 10a–c, they were incubated in aqueous phosphate buffer of pH 7.4 in the presence of excess N-acetylcysteine, which serves as a source of thiols that are essential for the release of NO from oximes. The signal intensity of the dye is proportional to the amount of NO released. To quantify the amount of NO released, a standard curve was made by measuring the change in absorbance of various concentrations of standard sodium nitrite solutions treated by the same way. […] At the first hour, the amount of nitric oxide released increased in compounds 8i, 8b, and 8h, while the maximum release of nitric oxide occurring in compounds 8b and 8h was at 2 h. Then, the amount of nitic oxide released declined, which may explain the biological importance of oxime moiety as a source of nitric oxide release in comparison with ketone intermediates 7a–j and 9a–c, as shown in the anticancer activity of oxime derivatives.
The nitrite calibration curve in addition to the absorbance of the tested compounds were measured on Shimadzu UV-160, UV-Visible spectrophotometer (Shimadzu, Tokyo, Japan). The tested compounds were prepared as solutions in DMF and diluted with the buffer system until a concentration of 100 mM. N-Acetyl cysteine solution was prepared in a concentration of 500 mM in methanol. Griess reagent consists of 0.1% w/v NED solution in water and sulfanilamide solution (1% w/v of sulfanilamide in 5% w/v phosphoric acid). Nitrite standard solution (0.1 M sodium nitrite in water) stock solution was prepared, from which a dilute solution of 100 μM nitrite solution was prepared by dilution 1 mL of the stock solution to 1000 mL with phosphate buffer of pH 7.4. From this solution, 4 serials 2-fold dilutions were performed to generate different concentrations of the nitrite solution (100.00, 50.00, 25.00, and 12.50 μM) and these concentrations were used for nitrite calibration curve.
Sulfanilamide and NEDD solutions were kept at 25 °C; […] of sulfanilamide solution was added to each dilution of the prepared standard nitrite solution. The mixture was left at 25 °C for 5–10 min protected from light. To this mixture, […] of the NEDD solution was added and the mixture was again left for 5–10 min at 25 °C protected from light. […] A plot of the average absorbance value for each concentration of the nitrite standard solution as a function of “Y” against nitrite concentration as a function of “X” was constructed to generate a standard nitrite calibration curve at pH 7.4.
The amount of NO released from the tested compounds 8a–b, 8d–I, and 10a–c was measured using the Griess colorimetric method either in phosphate buffer of pH 7.4 in the presence of N-acetyl cysteine, which serves as a source of thiols. The amount of NO released from the tested compounds was measured relative to NO released from standard sodium nitrite solution.
Different solutions of the tested compounds 8a–b, 8d–i, and 10a–c in DMF were diluted using phosphate buffer of pH 7.4 till a final concentration of 100 mM (test solutions). To […] of different test solutions, […] of N-acetyl cysteine solution was added and the obtained solution was kept in an incubator at 37 °C (treated solutions). […]
(The Griess reaction detects nitrite, a stable product of nitric oxide.)

Where [3] appears, read: HepG2, 100 µM, WST-8 assay, read-out: Growth Inhibition (GI%) HepG2.

Take `COc1cc(/C(C)=N/O)ccc1OC(=O)c1cc(-c2ccccc2)n(-c2ccccc2)n1` [Compound 8a, (E)–4–(1–(Hydroxyimino)ethyl)2–methoxyphenyl 1,5–diphenyl–1H–pyrazole–3–carboxylate]: in assay [1] (setting [3]), the inhibition at 100 µM came to 0%. Besides, in assay [2], the “Amount of NO Released (mol/mol) 1 h” value is 0.095 ± 0.036 mol/mol, the “Amount of NO Released (mol/mol) 2 h” value amounted to 0.121 ± 0.047 mol/mol, the “Amount of NO Released (mol/mol) 3 h” value is recorded as 0.108 ± 0.042 mol/mol and the “Amount of NO Released (mol/mol) 4 h” value amounted to 0.056 ± 0.022 mol/mol.

As to `COc1cc(/C(C)=N/O)ccc1OC(=O)c1cc(-c2ccc(C)cc2)n(-c2ccccc2)n1` [Compound 8b, (E)–4–(1–(Hydroxyimino)ethyl)–2–methoxyphenyl 1–phenyl–5–p–tolyl–1H–pyrazole–3–carboxylate], the inhibition at 100 µM in assay [1] (setting [3]) worked out at 107%. Further, in assay [2], the “Amount of NO Released (mol/mol) 1 h” value turned out to be 0.102 ± 0.039 mol/mol, the “Amount of NO Released (mol/mol) 2 h” value came out at 0.159 ± 0.019 mol/mol, the “Amount of NO Released (mol/mol) 3 h” value worked out at 0.105 ± 0.025 mol/mol and the “Amount of NO Released (mol/mol) 4 h” value was 0.095 ± 0.030 mol/mol.

As for `COc1cc(/C(C)=N/O)ccc1OC(=O)c1cc(-c2ccc(Cl)cc2)n(-c2ccccc2)n1` [Compound 8d, (E)–4–(1–(Hydroxyimino)ethyl)–2–methoxyphenyl 5–(4–chlorophenyl)–1–phenyl–1H–pyrazole–3–carboxylate], in assay [1] (HepG2, read-out: Growth Inhibition (GI%) HepG2), the inhibition at 100 µM is 98%. In assay [1] (HepG2, read-out: IC50 HepG2), the IC50 came out at 23.3 µM. For the same compound, in assay [2], the “Amount of NO Released (mol/mol) 1 h” value turned out to be 0.096 ± 0.036 mol/mol, the “Amount of NO Released (mol/mol) 2 h” value came out at 0.106 ± 0.040 mol/mol, the “Amount of NO Released (mol/mol) 3 h” value amounted to 0.101 ± 0.038 mol/mol and the “Amount of NO Released (mol/mol) 4 h” value is recorded as 0.079 ± 0.030 mol/mol.

Consider `COc1ccc(-c2cc(C(=O)Oc3ccc(/C(C)=N/O)cc3OC)nn2-c2ccccc2)cc1OC` [Compound 8e, (E)–4–(1–(Hydroxyimino)ethyl)–2–methoxyphenyl 5–(3,4–dimethoxy phenyl)–1–phenyl–1H–pyrazole–3–carboxylate], for which, in assay [1] (setting [3]), the inhibition at 100 µM was determined as 99%. In addition, in assay [2], the “Amount of NO Released (mol/mol) 1 h” value came out at 0.064 ± 0.022 mol/mol, the “Amount of NO Released (mol/mol) 2 h” value is reported as 0.120 ± 0.046 mol/mol, the “Amount of NO Released (mol/mol) 3 h” value came to 0.081 ± 0.030 mol/mol and the “Amount of NO Released (mol/mol) 4 h” value worked out at 0.048 ± 0.018 mol/mol.

On to `COc1cc(/C(C)=N/O)ccc1OC(=O)c1cc(-c2ccccc2)n(-c2ccc(S(N)(=O)=O)cc2)n1` [Compound 8f, (E)–4–(1–(Hydroxyimino)ethyl)–2–methoxyphenyl 5–phenyl–1–(4–sulfamoyl phenyl)–1H–pyrazole–3–carboxylate], for which the inhibition at 100 µM in assay [1] (setting [3]) was determined as 80%. In assay [2], the “Amount of NO Released (mol/mol) 1 h” value amounted to 0.096 ± 0.036 mol/mol, the “Amount of NO Released (mol/mol) 2 h” value worked out at 0.116 ± 0.045 mol/mol, the “Amount of NO Released (mol/mol) 3 h” value was determined as 0.079 ± 0.030 mol/mol and the “Amount of NO Released (mol/mol) 4 h” value turned out to be 0.048 ± 0.018 mol/mol.

Consider `COc1cc(/C(C)=N/O)ccc1OC(=O)c1cc(-c2ccc(C)cc2)n(-c2ccc(S(N)(=O)=O)cc2)n1` [Compound 8g, (E)–4–(1–(Hydroxyimino)ethyl)–2–methoxyphenyl 1–(4–sulfamoylphenyl)–5–p–tolyl–1H–pyrazole–3–carboxylate], for which the inhibition at 100 µM in assay [1] (setting [3]) worked out at 93%. In assay [2], the “Amount of NO Released (mol/mol) 1 h” value stood at 0.083 ± 0.035 mol/mol, the “Amount of NO Released (mol/mol) 2 h” value was determined as 0.154 ± 0.044 mol/mol, the “Amount of NO Released (mol/mol) 3 h” value was found to be 0.141 ± 0.039 mol/mol and the “Amount of NO Released (mol/mol) 4 h” value was determined as 0.089 ± 0.019 mol/mol.

For the compound `COc1ccc(-c2cc(C(=O)Oc3ccc(/C(C)=N/O)cc3OC)nn2-c2ccc(S(N)(=O)=O)cc2)cc1` [Compound 8h, (E)–4–(1–(Hydroxyimino)ethyl)–2–methoxyphenyl 5–(4–methoxyphenyl)–1–(4–sulfamoyl phenyl)–1H–pyrazole–3–carboxylate], in assay [1] (setting [3]), the inhibition at 100 µM was determined as 63%. Besides, in assay [2], the “Amount of NO Released (mol/mol) 1 h” value is recorded as 0.099 ± 0.029 mol/mol, the “Amount of NO Released (mol/mol) 2 h” value stood at 0.158 ± 0.014 mol/mol, the “Amount of NO Released (mol/mol) 3 h” value worked out at 0.104 ± 0.033 mol/mol and the “Amount of NO Released (mol/mol) 4 h” value turned out to be 0.094 ± 0.0022 mol/mol.

For the compound `COc1cc(/C(C)=N/O)ccc1OC(=O)c1cc(-c2ccc(Cl)cc2)n(-c2ccc(S(N)(=O)=O)cc2)n1` [Compound 8i, (E)–4–(1–(Hydroxyimino)ethyl)–2–methoxyphenyl 5–(4–chlorophenyl)–1–(4–sulfamoyl phenyl)–1H–pyrazole–3–carboxylate], the inhibition at 100 µM in assay [1] (setting [3]) amounted to 90%. Further, in assay [2], the “Amount of NO Released (mol/mol) 1 h” value came out at 0.105 ± 0.029 mol/mol, the “Amount of NO Released (mol/mol) 2 h” value stood at 0.115 ± 0.018 mol/mol, the “Amount of NO Released (mol/mol) 3 h” value amounted to 0.109 ± 0.046 mol/mol and the “Amount of NO Released (mol/mol) 4 h” value turned out to be 0.087 ± 0.035 mol/mol.

Regarding `C/C(=N\O)c1ccc(NC(=O)c2cc(-c3ccccc3)n(-c3ccc(S(N)(=O)=O)cc3)n2)cc1` [Compound 10a, (E)–N–(4–(1–(Hydroxyimino)ethyl)phenyl)–5–phenyl–1–(4–sulfamoylphenyl)–1H–pyrazole–3–carboxamide], the inhibition at 100 µM in assay [1] (setting [3]) was found to be 72%. Also, in assay [2], the “Amount of NO Released (mol/mol) 1 h” value worked out at 0.054 ± 0.023 mol/mol, the “Amount of NO Released (mol/mol) 2 h” value turned out to be 0.108 ± 0.043 mol/mol, the “Amount of NO Released (mol/mol) 3 h” value was determined as 0.069 ± 0.024 mol/mol and the “Amount of NO Released (mol/mol) 4 h” value is 0.036 ± 0.012 mol/mol.
